Test results reported in publication PMC11053489 (Viruses, 2024).
Where a name gives a salt, the structure may show the parent alone. Read-outs that look alike come from different tables or passages of the source.

Tests used:
[1] = MTS cytotoxicity assay, Vero CCL-81 cells; settings: African green monkey
[2] = Peak plasma concentration; settings: human, in vivo
[3] = tested on: SARS-CoV-2 (hCoV-19/USA-WA1/2020) in Vero CCL-81 cells; assay: microbe, parasite or virus in culture; assay type: cell-based; settings: for anti-SARS-CoV-2 activity (in words), concentrations up to 100 μM: Vero CCL-81 cells
[4] = in vitro; settings: African green monkey
[5] = cited from earlier work; for Fun: Table 3, 1 – fraction bound reported in the literature, ref column Refs of Table 3
[6] = human, in vivo
[7] = tested on: SARS-CoV-2 (hCoV-19/USA-WA1/2020) in Caco-2 cells; assay: microbe, parasite or virus in culture; settings: Severe acute respiratory syndrome coronavirus 2, Caco-2, 72 h; for EC50: read-out: Caco-2 SARS-CoV-2 EC50; for EC90: read-out: Caco-2 SARS-CoV-2 EC90
[8] = tested on: SARS-CoV-2 (hCoV-19/USA-WA1/2020) in Calu-3 cells; assay: microbe, parasite or virus in culture; assay type: cell-based; settings: for EC50 / EC90: Severe acute respiratory syndrome coronavirus 2, Calu-3, MOI 0.01, 72 h, 2% FBS; for EC50: read-out: Calu-3 SARS-CoV-2 EC50; for EC90: read-out: Calu-3 SARS-CoV-2 EC90; for anti-SARS-CoV-2 activity in Calu-3 cells (in words): tested up to 100 μM
[9] = in vitro; settings: human, Caco-2
[10] = in vitro; settings: human
[11] = tested on: SARS-CoV-2 (hCoV-19/USA-WA1/2020) in Caco-2 cells
[12] = in vitro; settings: human; remark: listed apart in the source
[13] = MTS cytotoxicity assay, Huh-7 cells; settings: human
[14] = MTS cytotoxicity assay, Calu-3 cells; settings: human
[15] = MTS cytotoxicity assay, PBM cells; settings: human
[16] = MTS cytotoxicity assay, CEM cells; settings: human
[17] = MTS cytotoxicity assay, Caco-2 cells; settings: human
[18] = tested on: CCRF-CEM cells; settings: human, 4 days
[19] = tested on: Huh-7 cells; settings: human, 4 days
[20] = Severe acute respiratory syndrome coronavirus 2, Table 3, drugs tested only in Vero CCL-81, MOI 0.1, 48 h, read-out: Vero CCL-81 Cells EC50
[21] = Severe acute respiratory syndrome coronavirus 2, Table 3, drugs tested only in Vero CCL-81, MOI 0.1, 48 h, read-out: Vero CCL-81 Cells EC90
[22] = Severe acute respiratory syndrome coronavirus 2, Table 1 drugs, MOI 0.1, 48 h, 2% FBS, read-out: Vero CCL-81 SARS-CoV-2 EC50
[23] = Severe acute respiratory syndrome coronavirus 2, Table 1 drugs, MOI 0.1, 48 h, 2% FBS, read-out: Vero CCL-81 SARS-CoV-2 EC90
[24] = NAs and nucleoside-base precursors, evaluated up to 20 μM

NC12CC3CC(CC(C3)C1)C2 [Amantadine]
CC50 at 3 days [1]: > 100 µM
Cmax (μM) {unbound} [2]: 0.002 µM

CC(C)/N=c1\cc2n(-c3ccc(Cl)cc3)c3ccccc3nc-2cc1Nc1ccc(Cl)cc1 [Clofazimine]
EC50 [3, 20]: 0.5 µM
EC90 [3, 21]: 3 µM
CC50 at 3 days [4]: 34.3 µM
Fun [5]: 0.001
Cmax (μM) {unbound} [2]: 0.002 µM

CC(C)OC(=O)[C@H](C)N[P@](=O)(CO[C@H](C)Cn1cnc2c(N)ncnc21)Oc1ccccc1 [tenofovir alafenamide]
antiviral activity in Vero CCL-81 cells (in words) [3]: lack of antiviral activity

c1cc(CN2CCCNCCNCCCNCC2)ccc1CN1CCCNCCNCCCNCC1 [plerixafor]
anti-SARS-CoV-2 activity (in words), concentrations up to 100 μM [3]: inactive

COC[C@H]1C[C@@H](c2ncc(-c3ccc4c(c3)COc3cc5c(ccc6nc([C@@H]7CC[C@H](C)N7C(=O)[C@@H](NC(=O)OC)C(C)C)[nH]c65)cc3-4)[nH]2)N(C(=O)[C@H](NC(=O)OC)c2ccccc2)C1 [Velpatasvir]
EC50 [3, 20]: 19.1 µM
EC90 [3, 21]: 79.6 µM
CC50 at 3 days [4]: > 100 µM
Cmax (μM) {unbound} [6]: 0.001 µM

NC(N)=Nc1nc(CSCCC(N)=NS(N)(=O)=O)cs1 [Famotidine]
EC50 [3, 20]: 160 µM
CC50 at 3 days [1]: > 100 µM
Fun [5]: 0.8
Cmax (μM) {unbound} [2]: 0.16 µM

CC(=O)Oc1ccccc1C(=O)Nc1ncc([N+](=O)[O-])s1 [Nitazoxanide]
EC50 [3, 22]: 1.4 µM
EC90 [3, 23]: 3.9 µM
EC50 [7]: 4.4 µM
EC90 [7]: 11.1 µM
EC50 [8]: 22.8 µM
EC90 [8]: 42.9 µM
CC50 at 3 days [9]: 7.2 µM
CC50 at 3 days [4]: 8.7 µM
Fun (unbound fraction of drug in plasma) ([5]; Table 1, ref column Refs of Table 1): 0.01
Cmax (μM) {unbound} [6]: 0.014 µM
CC50 at 3 days [10]: 49.8 µM
Caco-2 Unbound Cmax/EC50 ([11]; Caco-2): 0.078
CC50 at 5 days [12]: 8.3 µM

CC(C)OC(=O)OCOP(=O)(CO[C@H](C)Cn1cnc2c(N)ncnc21)OCOC(=O)OC(C)C [tenofovir disoproxil fumarate]
antiviral activity in Vero CCL-81 cells (in words) [3, 24]: lack of antiviral activity

CN(C)CCC(c1ccc(Cl)cc1)c1ccccn1 (stereo not shown) [Chlorpheniramine maleate]
EC50 [3, 20]: 31 µM
EC90 [3, 21]: 104 µM
CC50 at 3 days [1]: > 100 µM
Fun [5]: 0.28
Cmax (μM) {unbound} [2]: 0.008 µM

C[C@@H]1C[C@H]2[C@@H]3CCC4=CC(=O)C=C[C@]4(C)[C@@]3(F)[C@@H](O)C[C@]2(C)[C@@]1(O)C(=O)CO [dexamethasone]
anti-SARS-CoV-2 activity (in words), concentrations up to 100 μM [3]: inactive

CN(Cc1cc(Br)cc(Br)c1N)C1CCCCC1 [Bromhexine]
EC50 [3, 20]: 0.8 µM
EC90 [3, 21]: 6.2 µM
CC50 at 3 days [4]: > 100 µM
Cmax (μM) {unbound} [6]: 0.005 µM

Nc1ccn([C@@H]2CS[C@H](CO)O2)c(=O)n1 [lamivudine]
antiviral activity in Vero CCL-81 cells (in words) [3, 24]: lack of antiviral activity

O=C1O[C@H]([C@@H](O)CO)C(O)=C1O [L-ascorbic acid]
anti-SARS-CoV-2 activity (in words), concentrations up to 100 μM [3]: inactive

Nc1nc(=O)n([C@@H]2CS[C@H](CO)O2)cc1F [emtricitabine]
antiviral activity in Vero CCL-81 cells (in words) [3, 24]: lack of antiviral activity

COC(=O)N[C@H](C(=O)N1CCC[C@H]1c1nc(-c2ccc3c(c2)O[C@@H](c2ccccc2)n2c-3cc3cc(-c4c[nH]c([C@@H]5CCCN5C(=O)[C@@H](NC(=O)OC)C(C)C)n4)ccc32)c[nH]1)C(C)C [Elbasivir]
EC50 [3, 20]: 3.4 µM
EC90 [3, 21]: 12.5 µM
CC50 at 3 days [4]: > 100 µM
Cmax (μM) {unbound} [6]: 0.003 µM

CC#CC(=O)N1CCC[C@H]1c1nc(-c2ccc(C(=O)Nc3ccccn3)cc2)c2c(N)nccn12 [Acalabrutinib]
EC50 [3, 20]: 11.1 µM
EC90 [3, 21]: 70.9 µM
CC50 at 3 days [4]: > 100 µM
Cmax (μM) {unbound} [6]: 0.017 µM

CC(C)OC(=O)C(C)(C)Oc1ccc(C(=O)c2ccc(Cl)cc2)cc1 [Fenofibrate]
CC50 at 4 days [13]: > 100 µM
CC50 at 3 days [14]: ≥ 100 µM
anti-SARS-CoV-2 activity in Calu-3 cells (in words) [8]: inactive
CC50 at 5 days [15]: 38.9 µM
CC50 at 3 days [1]: > 100 µM
CC50 at 4 days ([16]; CEM CC50, 4 days): 28.5 µM
anti-SARS-CoV-2 activity in Caco-2 cells (in words) ([11]; tested up to 100 μM): inactive
Cmax (μM) {unbound} [2]: 0.28 µM
CC50 at 3 days [17]: > 100 µM

O=C(O)COCCN1CCN(C(c2ccccc2)c2ccc(Cl)cc2)CC1 (stereo not shown) [cetirizine]
anti-SARS-CoV-2 activity (in words), concentrations up to 100 μM [3]: inactive

CC(C)(O)c1ccccc1CC[C@@H](SCC1(CC(=O)O)CC1)c1cccc(/C=C/c2ccc3ccc(Cl)cc3n2)c1 [Montelukast sodium]
Cmax (μM) {unbound} [2]: 0.009 µM

Cc1cccc(/C=N/Nc2cc(N3CCOCC3)nc(OCCc3ccccn3)n2)c1 [Apilimod mesylate]
EC50 [3, 22]: 0.7 µM
EC90 [3, 23]: 7.4 µM
EC50 [7]: 85 µM
EC90 [7]: > 100 µM
EC50 [8]: > 100 µM
anti-SARS-CoV-2 activity in Calu-3 cells (in words) [8]: inactive
CC50 at 3 days [9]: > 100 µM
CC50 at 3 days [4]: > 100 µM
CEM CC50 {Unbound} [18]: 62.2 µM
Cmax (μM) {unbound} [6]: 0.043 µM
Huh7 CC50 {Unbound} [19]: 54.8 µM
CC50 at 3 days [10]: > 100 µM
Caco-2 Unbound Cmax/EC50 ([11]; Caco-2): 0.0005
CC50 at 5 days [12]: > 100 µM

Cc1ccc(-c2cc(C(F)(F)F)nn2-c2ccc(S(N)(=O)=O)cc2)cc1 [Celecoxib]
CC50 at 4 days [13]: 31.1 µM
CC50 at 3 days [14]: 70.5 µM
EC50 [3, 22]: 7.2 µM
EC90 [3, 23]: 14.6 µM
EC50 [7]: 0.7 µM
EC90 [7]: 1.2 µM
EC50 [8]: 3 µM
EC90 [8]: 6.3 µM
CC50 at 5 days [15]: > 100 µM
CC50 at 3 days [1]: 50 µM
CC50 at 4 days [16]: 77.1 µM
Caco-2 Unbound Cmax/EC50 ([11]; Cmax × Fun/EC50): 0.08
Cmax (μM) {unbound} [2]: 0.056 µM
CC50 at 3 days [17]: 59.1 µM

CC(C)C(=O)OC[C@H]1O[C@@H](n2ccc(NO)nc2=O)[C@H](O)[C@@H]1O [Molnupiravir (NHC), Molnupiravir]
EC50 [3, 22]: 0.6 µM
EC90 [3, 23]: 1.4 µM
EC50 [7]: 1.7 µM
EC90 [7]: 12.2 µM
EC50 [8]: 0.4 µM
EC90 [8]: 1.8 µM
Fun (unbound fraction of drug in plasma) ([5]; plasma): 1
Cmax (μM) {unbound} [6]: 7.10 µM
Caco-2 Unbound Cmax/EC50 ([11]; Caco-2): 5.3

COc1ccc2[nH]cc(CCNC(C)=O)c2c1 [Melatonin]
EC50 [3, 20]: 22 µM
CC50 at 3 days [1]: > 100 µM
Fun [5]: 0.22
Cmax (μM) {unbound} [2]: 0.005 µM

CCCCCc1cc(O)c2c(c1)OC(C)(C)c1ccc(C)cc1-2 [Cannabinol]
EC50 ([3]; Severe acute respiratory syndrome coronavirus 2, 48 h, read-out: Vero CCL-81 Cells EC50): 2.7 µM
EC90 ([3]; Severe acute respiratory syndrome coronavirus 2, 48 h, read-out: Vero CCL-81 Cells EC90): 8.7 µM
CC50 [4]: 37.3 µM
Fun [5]: 0.1

CC(C)C(=O)OCC(=O)[C@@]12O[C@H](C3CCCCC3)O[C@@H]1C[C@H]1[C@@H]3CCC4=CC(=O)C=C[C@]4(C)[C@H]3[C@@H](O)C[C@@]12C [Ciclesonide]
EC50 [3, 20]: 4.1 µM
EC90 [3, 21]: 7.8 µM
CC50 at 3 days [4]: 33.9 µM
Cmax (μM) {unbound} [6]: 0.0000/1 μM

CC(C)OC(=O)[C@H](C)N[P@](=O)(OC[C@H]1O[C@@H](n2ccc(=O)[nH]c2=O)[C@](C)(F)[C@@H]1O)Oc1ccccc1 [sofosbuvir]
antiviral activity in Vero CCL-81 cells (in words) [3]: lack of antiviral activity

NC(=O)c1ncn([C@@H]2O[C@H](CO)[C@@H](O)[C@H]2O)n1 [ribavirin]
antiviral activity in Vero CCL-81 cells (in words) [3, 24]: lack of antiviral activity

CN1CC[C@H](c2c(O)cc(O)c3c(=O)cc(-c4ccccc4Cl)oc23)[C@H](O)C1 [Flavopiridol]
EC50 [3, 20]: 0.1 µM
EC90 [3, 21]: 1.1 µM
CC50 at 3 days [1]: 0.031 µM
Fun [5]: 0.05
Cmax (μM) {unbound} [2]: 0.096 µM

CC(C)C(=O)OC[C@H]1O[C@@](C#N)(c2ccc3c(N)ncnn23)[C@H](O)[C@@H]1O [Obeldesivir]
Cmax (μM) {unbound} [6]: 5.79 µM
Caco-2 Unbound Cmax/EC50 ([11]; Caco-2): 72

O=C(O)Cc1ccccc1Nc1c(Cl)cccc1Cl [Diclofenac sodium]
EC50 [3, 20]: 97.6 µM
EC90 [3, 21]: 141 µM
CC50 at 3 days [1]: > 100 µM
Cmax (μM) {unbound} [2]: 0.012 µM

C[C@H]1c2cccc(O)c2C(=O)C2=C(O)[C@]3(O)C(=O)C(C(N)=O)=C(O)[C@@H](N(C)C)[C@@H]3[C@@H](O)[C@@H]21 [Doxycycline]
EC50 [3, 20]: 69.3 µM
EC90 [3, 21]: 102 µM
CC50 at 3 days [1]: ≥ 100 µM
Fun [5]: 0.15
Cmax (μM) {unbound} [2]: 0.55 µM
